# According to ChEMBL document CHEMBL1150682, “Modiolides A and B, two new 10-membered macrolides from a marine-derived fungus” (2003):
# Legend:
# Micrococcus luteus = assay: Antimicrobial activity against Micrococcus luteus; assay type: functional
# Neurospora crassa = assay: Antimicrobial activity against Neurospora crassa; assay type: functional
MIC (Micrococcus luteus),MIC (Neurospora crassa),Compound
16.7 µg/mL,33.3 µg/mL,C[C@@H]1CC/C=C/[C@@H](O)/C=C\C(=O)O1 [MODIOLIDE B]
16.7 µg/mL,33.3 µg/mL,C[C@@H]1C[C@H](O)/C=C/[C@@H](O)/C=C\C(=O)O1 [MODIOLIDE A]
